One assay concerns the target T1, Mtb GuaB2 (Mycobacterium tuberculosis, UniProt P9WKI7).
T1 construct: made in house
In words: Biochemical assay of GuaB2 inhibition. As to conditions: duplicate, mean. How it is done: The Mtb ortholog of the enzyme was recombinantly expressed, purified and assayed as previously described. Inhibition was determined at 0.1 mM, using 12 μg GuaB2 with the addition of 0.5% CHAPS. Each assay was normalised for DMSO concentration. Data was recorded in duplicate and analysed using Graphpad Prism 6.0.

For the next assay, the system named is M. bovis BCG pMV261. In words: microbe, parasite or virus in culture. The assay is classed as cell-based. As to conditions: Mycobacterium tuberculosis variant bovis BCG, 168 h, read-out: pXC50 for Empty Vector (converted).
For assay [1], the system named is M. bovis BCG pMV261-guaB2. The experiment in a line: microbe, parasite or virus in culture. The assay is classed as cell-based, Mycobacterium bovis BCG. The conditions noted are these: for IC50: Mycobacterium tuberculosis variant bovis BCG, BCG, 168 h, 7 days, read-out: pXC50 Mean for GuaB2 (converted).
The subject of the next assay is M. tuberculosis H37Rv. The experiment in a line: MIC against H37Rv. The format is cell-based. The conditions noted are these: Mycobacterium tuberculosis. The text has this:
Table 1 Z’ and pXC50 values for dose response validation of GuaB2 targeting compounds.

Where [2] appears, read: 0.1 mM compound, 12 μg GuaB2, 0.5% CHAPS.
The mark [3] stands for this setting: 0.1 mM compound, 12 μg GuaB2, 0.5% CHAPS, read-out: % Biochemical Inhibition of Mtb GuaB2.
[4] abbreviates: read-out: % Biochemical Inhibition of Mtb GuaB2, 0.1 mM compound, 12 μg GuaB2, 0.5% CHAPS.

Experimental findings from PMC5159837, “Novel inhibitors of Mycobacterium tuberculosis GuaB2 identified by a target based high-throughput phenotypic screen” (Scientific Reports, 2016) are described below.

Converted amounts (≈) assume the structure as drawn. “And” between values parts separate entries of the source, which are not always exact repeats. Identical values can stand only once. Like-named read-outs stand apart in the source and are kept apart here. Some results are limits rather than exact numbers.

T1 sequence (P9WKI7 whole entry, looked up): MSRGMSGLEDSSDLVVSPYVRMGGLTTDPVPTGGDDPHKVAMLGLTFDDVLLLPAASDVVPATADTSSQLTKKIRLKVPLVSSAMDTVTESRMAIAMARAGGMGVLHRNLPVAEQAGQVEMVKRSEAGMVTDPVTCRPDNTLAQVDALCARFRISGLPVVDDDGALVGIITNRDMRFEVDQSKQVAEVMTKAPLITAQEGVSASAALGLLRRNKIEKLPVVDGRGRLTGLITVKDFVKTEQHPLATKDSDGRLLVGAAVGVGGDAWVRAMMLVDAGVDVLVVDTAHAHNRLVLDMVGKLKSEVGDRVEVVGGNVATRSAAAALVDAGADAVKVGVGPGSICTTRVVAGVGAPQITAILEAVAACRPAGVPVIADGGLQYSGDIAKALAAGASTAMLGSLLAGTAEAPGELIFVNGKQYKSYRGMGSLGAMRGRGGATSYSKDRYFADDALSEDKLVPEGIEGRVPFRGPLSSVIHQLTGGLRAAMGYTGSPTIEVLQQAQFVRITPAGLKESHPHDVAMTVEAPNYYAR

Take `NNC(=O)c1ccncc1` [INH, isoniazid, reference compound]: the “% Biochemical Inhibition of Mtb GuaB2” value at Mtb GuaB2 (setting [2]) is −9% and −8.88%.
As a reminder, the inhibition is the percentage by which the read-out fell short of the control. For orientation: MIC means the smallest concentration in the dilution series that meets the test's criterion for growth inhibition. For `CC1CCC(NC(=O)Nc2ccc3snnc3c2)CC1` (stereo not drawn) [JAGC_7, 1-(benzo[d][1,2,3]thiadiazol-5-yl)-3-(4-methylcyclohexyl)urea], the IC50 in the assay on M. bovis BCG pMV261 was 4.17 µM. In addition, the inhibition at 100 µM on Mtb GuaB2 (setting [3]) worked out at 12.2%. Also, in assay [1], the “Shift pIC50” value came to 0.37 and the IC50 was 9.77 µM. Besides, the MIC in the assay with M. tuberculosis H37Rv worked out at 50 µM (≈ 14.5 µg/mL).
Regarding `COc1ccc(Cl)c2sc(N(CCN(C)C)C(C)=O)nc12` [JAGC_4, N-(7-chloro-4-methoxybenzo[d]thiazol-2-yl)-N-(2-(dimethylamino)ethyl)acetamide], in the assay on M. bovis BCG pMV261, the IC50 is 22.9 µM. On Mtb GuaB2 (setting [3]), the inhibition at 100 µM is 20.7%. Further, in assay [1], the “Shift pIC50” value is on record as 0.64 and the IC50 was no less than 100 µM. In the assay with M. tuberculosis H37Rv, this compound gave an MIC greater than 80 µM.
The corresponding values for `COC(=O)c1c(NC(=O)N2CCNCC2)sc2c1CC(C)(C)OC2` [JAGC_3, methyl 5,5-dimethyl-2-(piperazine-1-carboxamido)-4,7-dihydro-5H-thieno[2,3-c]pyran-3-carboxylate] are 10.2 µM, 21.8%, 0.99, no less than 100 µM and greater than 80 µM.
The corresponding values for `CC(C)CCN(c1ccc(C#N)c(Cl)c1)[C@H]1CCNC1` [JAGC_5, (S)-2-chloro-4-(isopentyl(pyrrolidin-3-yl)amino)benzonitrile] are 4.37 µM, 20.6%, 0.94, 38 µM and greater than 100 µM.
For the compound `Clc1cc2ccccc2c(N2CCNCC2)n1` [JAGC_6, 3-chloro-1-(piperazin-1-yl)isoquinoline], the IC50 in the assay with M. bovis BCG pMV261 was 3.8 µM; in assay [1], 44.7 µM. Moreover, the “% Biochemical Inhibition of Mtb GuaB2” value on Mtb GuaB2 (setting [2]) was 15.44%. Moreover, the inhibition at 100 µM at Mtb GuaB2 (setting [4]) was found to be 12.3%. The “Shift pIC50” value in assay [1] stood at 1.07. The compound also displayed an MIC with M. tuberculosis H37Rv greater than 80 µM.
For the compound `CCOc1ccc(C(=O)Nc2cc(Cl)c3c(c2)CNCC3)cc1C(C)=O` [JAGC_2, 3-acetyl-N-(5-chloro-1,2,3,4-tetrahydroisoquinolin-7-yl)-4-ethoxybenzamide], the IC50 with M. bovis BCG pMV261 is 8.32 µM. For the same compound, the “% Biochemical Inhibition of Mtb GuaB2” value at Mtb GuaB2 (setting [2]) is on record as 26.53%. Moreover, the inhibition at 100 µM at Mtb GuaB2 (setting [4]) came out at 26.5%. Also, in assay [1], the “Shift pIC50” value amounted to 0.84 and the IC50 is 57.5 µM. In the assay with M. tuberculosis H37Rv, the MIC was greater than 80 µM.
Turning to `Cc1ccc([N+](=O)[O-])cc1NC(=O)Nc1cccc(Cl)c1` [DPU-2, reference compound], the inhibition at 100 µM on Mtb GuaB2 (setting [3]) was found to be 44.6%.
In the case of `CC(=O)Nc1ccc(-c2ccc3ncc(N4CCN(C)CC4)nc3c2)cn1` [JAGC_1, N-(5-(3-(4-methylpiperazin-1-yl)quinoxalin-6-yl)pyridin-2-yl)acetamide], the IC50 in the assay on M. bovis BCG pMV261 was 8.91 µM. Also, the inhibition at 100 µM on Mtb GuaB2 (setting [3]) was found to be 23.1%. In assay [1], the “Shift pIC50” value came to 1.05 and the IC50 was no less than 100 µM. Moreover, in the assay with M. tuberculosis H37Rv, the MIC was greater than 80 µM.
